Activity calls are given as the source filed them. The rule behind the calls is not given here.
Key:
[1] = Antiproliferative activity against human SGC7901 cells measured after 72 hrs by MTT assay; assay type: functional, cell-based; details: SGC-7901, 72 h
[2] = Antiproliferative activity against human KB cells measured after 72 hrs by MTT assay; assay type: functional, cell-based
[3] = Antiproliferative activity against human HT1080 cells measured after 72 hrs by MTT assay; assay type: functional, cell-based; details: HT-1080, 72 h
[4] = Antitumor activity against mouse SVR cells implanted in athymic nude mouse assessed as tumor growth inhibition at 250 mg/kg, po qd for 10 days measured on day 4 relative to control; details: read-out: TGI
[5] = Inhibition of porcine brain tubulin polymerization measured after 60 mins by fluorescence analysis; set-up: species or system Sus scrofa
[6] = Cell cycle arrest in human KB cells assessed as accumulation at G2/M-phase at 0.2 uM measured up to 60 hrs by propidium iodide staining-based flow cytometry; assay type: functional
[7] = Cell cycle arrest in human KB cells assessed as accumulation at G2/M-phase up to 0.2 uM measured after 24 hrs by propidium iodide staining-based flow cytometry; assay type: functional

| Compound | IC50 [1] | IC50 [2] | IC50 [3] | inhibition in vivo at 250 mg/kg [4] | IC50 [5] | Activity [6] | Activity [7] |
| --- | --- | --- | --- | --- | --- | --- | --- |
| CO/N=c1/ssc(-c2cc(OC)c(OC)c(OC)c2)c1-c1ccc(OC)c([N+](=O)[O-])c1 | > 100 µM | > 100 µM | > 100 µM | – | – | – | – |
| COc1ccc(-c2c(-c3cc(OC)c(OC)c(OC)c3)ssc2=S)cc1 | 2.35 µM | 1.14 µM | 2.27 µM | – | – | – | – |
| COc1ccc(-c2c(-c3cc(OC)c(OC)c(OC)c3)ssc2=O)cc1[N+](=O)[O-] | > 100 µM | > 100 µM | > 100 µM | – | – | – | – |
| COc1ccc(-c2c(-c3cc(OC)c(OC)c(OC)c3)ssc2=O)cc1 | > 100 µM | > 100 µM | > 100 µM | – | – | – | – |
| COc1ccc(-c2ss/c(=N/O)c2-c2cc(OC)c(OC)c(OC)c2)cc1O | 0.2 µM | 0.85 µM | 0.73 µM | – | – | – | – |
| COc1ccc(-c2c(-c3cc(OC)c(OC)c(OC)c3)ssc2=O)cc1N | > 100 µM | > 100 µM | > 100 µM | – | – | – | – |
| Cc1c(-c2cnccn2)ssc1=S [OLTIPRAZ] | – | – | – | 81% | – | – | – |
| COc1ccc(-c2ss/c(=N/O)c2-c2cc(OC)c(OC)c(OC)c2)cc1 | 17.4 µM | 13.7 µM | 6.66 µM | – | – | – | – |
| COc1ccc(-c2ssc(=S)c2-c2cc(OC)c(OC)c(OC)c2)cc1N | 0.444 µM | 0.327 µM | 0.834 µM | – | – | – | – |
| CO/N=c1/ssc(-c2ccc(OC)c(O)c2)c1-c1cc(OC)c(OC)c(OC)c1 | 10 µM | 14.5 µM | 4.6 µM | – | – | – | – |
| CO/N=c1/ssc(-c2ccc(OC)c(N)c2)c1-c1cc(OC)c(OC)c(OC)c1 | > 100 µM | 4.33 µM | 4.23 µM | – | – | – | – |
| COc1ccc(-c2ssc(=O)c2-c2cc(OC)c(OC)c(OC)c2)cc1[N+](=O)[O-] | 0.44 µM | 22.3 µM | 4.22 µM | – | – | – | – |
| COc1ccc(-c2ssc(=O)c2-c2cc(OC)c(OC)c(OC)c2)cc1O | 3.11 µM | 0.46 µM | 1.91 µM | – | 9.71 µM | Active | Active |
| COc1ccc(-c2ssc(=O)c2-c2cc(OC)c(OC)c(OC)c2)cc1 | 0.134 µM | 0.324 µM | 0.464 µM | – | – | – | – |
| COc1ccc(-c2c(-c3cc(OC)c(OC)c(OC)c3)ss/c2=N/O)cc1[N+](=O)[O-] | 6.56 µM | 5.26 µM | 3.03 µM | – | – | – | – |
| COc1ccc(-c2ssc(=S)c2-c2cc(OC)c(OC)c(OC)c2)cc1[N+](=O)[O-] | 13.6 µM | > 100 µM | 9.14 µM | – | – | – | – |
| COc1ccc(/C=C\c2cc(OC)c(OC)c(OC)c2)cc1O [COMBRETASTATIN A4] | 0.026 µM | 0.007 µM | 0.01 µM | – | 0.92 µM | – | – |
| COc1ccc(-c2ss/c(=N/O)c2-c2cc(OC)c(OC)c(OC)c2)cc1N | 4.3 µM | 0.099 µM | 9.36 µM | – | 12.8 µM | Active | Active |
| CO/N=c1/ssc(-c2cc(OC)c(OC)c(OC)c2)c1-c1ccc(OC)c(N)c1 | 1.96 µM | 0.517 µM | 0.915 µM | – | – | – | – |
| COc1ccc(-c2c(-c3cc(OC)c(OC)c(OC)c3)ssc2=S)cc1N | 2.62 µM | 2.17 µM | 3 µM | – | – | – | – |
| COc1ccc(-c2c(-c3cc(OC)c(OC)c(OC)c3)ss/c2=N/O)cc1N | 2.91 µM | 2.91 µM | 2.91 µM | – | – | – | – |
| COc1ccc(-c2c(-c3cc(OC)c(OC)c(OC)c3)ss/c2=N/O)cc1 | > 100 µM | > 100 µM | > 100 µM | – | – | – | – |
| COc1ccc(-c2ssc(=S)c2-c2cc(OC)c(OC)c(OC)c2)cc1O | 0.271 µM | 0.435 µM | 0.231 µM | – | – | – | – |
| COc1ccc(-c2c(-c3cc(OC)c(OC)c(OC)c3)ssc2=S)cc1[N+](=O)[O-] | 44.7 µM | 38.2 µM | 3.55 µM | – | – | – | – |
| COc1ccc(-c2ssc(=S)c2-c2cc(OC)c(OC)c(OC)c2)cc1 | 21.1 µM | 4.91 µM | 18.6 µM | – | – | – | – |

Reference: ChEMBL document CHEMBL3865818, “4,5-Diaryl-3H-1,2-dithiole-3-thiones and related compounds as combretastatin A-4/oltipraz hybrids: Synthesis, molecular modelling and evaluation as antiproliferative agents and inhibitors of tubulin” (Eur J Med Chem, 2016)
